Measurements as given in US8569327B2, “Phenanthroindolizidine derivative and NFκB inhibitor containing same as active ingredient” (Kabushiki Kaisha Yakult Honsha, priority 2008, dated 2013).
Values after ≈ are worked out from the molar mass of the structure shown. Read-outs that look alike come from different tables or passages of the source.

Tests used:
NFκB = test: Inhibitory action on the NFκB activity, luciferase assay in SW480/NRE-Luc cells; format: cell-based, human; conditions: for IC50: Homo sapiens
Text: (§1) The action of the phenanthroindolizidine alkaloid compound of the present invention on the NFκB activity was studied using a luciferase assay. Human colon cancer SW480 cells were transfected with pNFκB-Luc Plasmid (Stratagene), which is a reporter vector in which a five-time tandem repeat of the NFκB responsive element (NRE) is integrated into the upstream of the luciferase gene, using Lipofectamine 2000 (Invitrogen Corporation) in accordance with the attached operating procedure. Subsequently, the cells were cultured in an RPMI1640 medium containing 10% FBS, 100 U/mL penicillin, 100 μg/mL streptomycin, and 0.5 mg/mL G418 to produce SW480 cells having the luciferase gene, the expression of which is regulated by NRE, stably introduced therein (SW480/NRE-Luc cells). Likewise, SW480 cells were transfected with pGL3-Control Vector (Promega Corporation), which is a reporter vector in which the SV40 promoter is integrated into the upstream of the luciferase gene, to produce SW480 cells having the luciferase gene, the expression of which is regulated by the SV40 promoter, stably introduced therein (SW480/SV40-Luc cells). The SW480/NRE-Luc cells or the SW480/SV40-Luc cells were suspended in an RPMI1640 medium containing 10% FBS, 100 U/mL penicillin, and 100 μg/mL streptomycin (10% FBS/RPMI1640), and then seeded in a 96-well microplate, followed by culturing under conditions of 5% CO2 and at 37° C. (5000 cells/well). After an overnight culture, the compound of the present invention was added, followed by culturing for one hour. Further, 50 ng/mL TNFα (Sigma-Aldrich Corporation) was added, followed by culturing for four hours. Subsequently, a Steady-Glo Luciferase Assay reagent (Promega Corporation) was added, and the luminescent intensity was detected by SpectraMax M5e (Molecular Devices, Inc.) to measure the intracellular luciferase activity. It is to be noted that the action of the compound of the present invention on the NFκB activity or the SV40 promoter activity was shown as IC50 values (the concentration of a test compound needed for 50% inhibition of the induction of the luciferase expression).

SV40 promoter = SV40 promoter activity, luciferase assay in SW480/SV40-Luc cells; format: cell-based, human; conditions: for IC50: Homo sapiens
Text: as §1

[1] = tested on: human colon cancer SW480 cells; test: Inhibitory action on the proliferation of SW480 cells; format: cell-based; conditions: 48 hours, TetraColor ONE; for IC50: Homo sapiens, SW480
Protocol: (§2) The action of the phenanthroindolizidine alkaloid compound of the present invention on the proliferation of human colon cancer SW480 cells, HT-29 cells, and human non-small cell lung cancer A549 cells was studied. The SW480 cells were suspended in a 10% FBS/RPMI1640 and then seeded in a 96-well microplate, followed by culturing in 5% CO2 at 37° C. (2000 cells/well). The A549 cells and the HT-29 cells were each suspended in a DMEM medium containing 10% FBS, 100 U/mL penicillin, and 100 μg/mL streptomycin (10% FBS/DMEM) and a DMEM F-12 HAM medium containing 10% FBS, 100 U/mL penicillin, and 100 μg/mL streptomycin (10% FBS/DMEM F12 HAM), and then seeded in 96-well microplates, followed by culturing in 5% CO2 at 37° C. (1000 cells/well). After an overnight culture, the compound of the present invention was added, followed by further culturing for 48 hours (SW480 cells) and 96 hours (A549 cells and HT-29 cells). After culturing, the number of viable cells was counted using TetraColor ONE (Seikagaku Corporation) in accordance with the attached operating procedure. The results were expressed as the concentration of a test compound needed for 50% inhibition of the proliferation of the cells (IC50).

[2] = tested on: human colon cancer HT-29 cells; test: Inhibitory action on the proliferation of HT-29 cells; format: cell-based; conditions: 96 hours, TetraColor ONE; for IC50: Homo sapiens, HT-29
Protocol: as §2

[3] = tested on: human non-small cell lung cancer A549 cells; test: Inhibitory action on the proliferation of A549 cells; format: cell-based; conditions: 96 hours, TetraColor ONE; for IC50: Homo sapiens, A549
Protocol: as §2

[4] = SW480/NRE-Luc cells, compound 1 h then 50 ng/mL TNFα 4 h, luciferase
[5] = SW480/SV40-Luc cells, luciferase
[6] = SW480, read-out: NFκB inhibitory activity IC50
[7] = SW480, read-out: SV40 promoter inhibitory activity IC50

IC50 (NFκB; SW480/NRE-Luc cells, compound 1 h then 50 ng/mL TNFα 4 h, luciferase, read-out: NFκB inhibitory activity IC50)	IC50 (SV40 promoter; SW480/SV40-Luc cells, luciferase, read-out: SV40 promoter inhibitory activity IC50)	Structure (SMILES)	NFκB inhibitory activity IC50 (NFκB; [4])	SV40 promoter inhibitory activity IC50 (SV40 promoter; [5])	SW480 proliferation inhibitory action IC50 [1]	HT-29 proliferation inhibitory action IC50 [2]	A549 proliferation inhibitory action IC50 [3]	IC50 (NFκB; [6])	IC50 (SV40 promoter; [7])	IC50 [1]	IC50 [2]	IC50 [3]
		COc1cc2c3c(c4ccc(OC(=O)C(C)(C)C)cc4c2cc1OC)C[C@@H]1CCCN1C3.CS(=O)(=O)O [Compound 48, 2,2-dimethyl-propionic acid(S)-6,7-dimethoxy-9,10,11,12,12a,13-hexahydro-9a-aza-cyclopenta[b]triphenylene-3-yl ester methanesulfonate]	0.40 ng/mL	>1000 ng/mL	0.58 ng/mL	2.0 ng/mL	1.2 ng/mL					
		COc1cc2c3c(c4ccc(OC(=O)CCCCCCC(=O)Oc5ccc6c7c(c8cc(OC)c(OC)cc8c6c5)CN5CCC[C@H]5[C@H]7O)cc4c2cc1OC)[C@H](O)[C@@H]1CCCN1C3.Cl [Compound 24, octanedionic acid(9S,12S)-13-hydroxy-6,7-dimethoxy-9,10,11,12,12a,13-hexahydro-9a-aza-cyclopenta[b]triphenylene-3-yl ester(12aS,13S)-13-hydroxy-6,7-dimethoxy-9,10,11,12,12a,13-hexahydro-9a-aza-cyclopenta[b]triphenylene-3-yl ester hydrochloride]	0.90 ng/mL	>100 ng/mL	0.77 ng/mL	0.24 ng/mL	0.18 ng/mL					
		COc1cc2c3c(c4ccc(OC(=O)C(C)(C)C)cc4c2cc1OC)C[C@@H]1CCCN1C3.Cl [Compound 35, 2,2-dimethyl-propionic acid(S)-6,7-dimethoxy-9,10,11,12,12a,13-hexahydro-9a-aza-cyclopenta[b]triphenylene-3-yl ester hydrochloride]	2.4 ng/mL	>1000 ng/mL	4.1 ng/mL	3.7 ng/mL	1.2 ng/mL					
		CCCC(=O)Oc1ccc2c3c(c4cc(OC)c(OC)cc4c2c1)CN1CCC[C@H]1C3.CS(=O)(=O)O [Compound 50, butyric acid(S)-6,7-dimethoxy-9,10,11,12,12a,13-hexahydro-9a-aza-cyclopenta[b]triphenylene-3-yl ester methanesulfonate]	0.34 ng/mL	>100 ng/mL	0.54 ng/mL	1.5 ng/mL	0.86 ng/mL					
		COc1cc2c3c(c4ccc(NC(=O)OCC(C)C)cc4c2cc1OC)[C@H](O)[C@@H]1CCCN1C3.Cl [Compound 18, ((12aS,13S)-13-hydroxy-6,7-dimethoxy-9,10,11,12,12a,13-hexahydro-9a-aza-cyclopenta[b]triphenylene-3-yl)-carbamic acid isobutyl ester hydrochloride]						15.5 ng/mL	> 1000 ng/mL	27.6 ng/mL	18.1 ng/mL	16.2 ng/mL
		COc1cc2c3c(c4cccc(O)c4c2cc1OC)[C@H](O)[C@@H]1CCCN1C3.Cl [Compound 30, (12aS,13S)-6,7-dimethoxy-9,10,11,12,12a,13-hexahydro-9a-aza-cyclopenta[b]triphenylene-4,13-diol hydrochloride]						0.017 ng/mL	> 1000 ng/mL	0.45 ng/mL	30.5 ng/mL	1.2 ng/mL
2400 ng/mL (≈ 16.3 µM)	> 10000 ng/mL	S=C(S)N1CCCC1 [PDTC, pyrrolidine dithiocarbamate, reference compound]										
		COc1cc2c3c(c4ccc(OC(=O)c5cccnc5)cc4c2cc1OC)[C@H](O)[C@@H]1CCCN1C3.Cl [Compound 11, nicotinic acid(12aS,13S)-13-hydroxy-6,7-dimethoxy-9,10,11,12,12a,13-hexahydro-9a-aza-cyclopenta[b]triphenylene-3-yl ester hydrochloride]	0.48 ng/mL	>10 ng/mL	0.50 ng/mL	0.44 ng/mL	0.028 ng/mL					
		COc1cc2c3c(c4ccc(NC(=O)OCc5ccccc5)cc4c2cc1OC)[C@H](O)[C@@H]1CCCN1C3.Cl [Compound 26, ((12aS,13S)-13-hydroxy-6,7-dimethoxy-9,10,11,12,12a,13-hexahydro-9a-aza-cyclopenta[b]triphenylene-3-yl)-carbamic acid benzyl ester hydrochloride]						19.9 ng/mL	> 1000 ng/mL	37.3 ng/mL	6.7 ng/mL	8.8 ng/mL
		COc1cc2c3c(c4ccc(N)cc4c2cc1OC)C[C@@H]1CCCN1C3.CS(=O)(=O)O [Compound 54, (S)-3-amino-6,7-dimethoxy-9,10,11,12,12a,13-hexahydro-9a-aza-cyclopenta[b]triphenylene methanesulfonate]						2 ng/mL	> 10 ng/mL	3.9 ng/mL	4.15 ng/mL	2.8 ng/mL
		COc1cc2c3c(c4ccc(OC(=O)c5ccsc5)cc4c2cc1OC)[C@H](O)[C@@H]1CCCN1C3.Cl [Compound 23, thiophene-3-carboxylic acid(12aS,13S)-13-hydroxy-6,7-dimethoxy-9,10,11,12,12a,13-hexahydro-9a-aza-cyclopenta[b]triphenylene-3-yl ester hydrochloride]	4.1 ng/mL	>100 ng/mL	3.1 ng/mL	1.4 ng/mL	0.76 ng/mL					
		CCc1ccc2c3c(c4cc(OC)c(OC)cc4c2c1)CN1CCC[C@H]1[C@H]3O.Cl [Compound 3, (12aS,13S)-3-ethyl-6,7-dimethoxy-9,10,11,12,12a,13-hexahydro-9a-aza-cyclopenta[b]triphenylene-13-ol hydrochloride]						105 ng/mL	> 10000 ng/mL	219 ng/mL	50.8 ng/mL	24.5 ng/mL
		COc1cc2c3c(c4ccc(OC(=O)c5cccnc5)cc4c2cc1OC)C[C@@H]1CCCN1C3.CS(=O)(=O)O [Compound 47, nicotinic acid(S)-6,7-dimethoxy-9,10,11,12,12a,13-hexahydro-9a-aza-cyclopenta[b]triphenylene-3-yl ester methanesulfonate]	0.42 ng/mL	>1000 ng/mL	0.38 ng/mL	1.9 ng/mL	1.1 ng/mL					
		COc1cc2c3c(c4ccc(N5CCCC5)cc4c2cc1OC)C[C@@H]1CCCN1C3.CS(=O)(=O)O [Compound 57, (S)-6,7-dimethoxy-3-pyrrolidine-9,10,11,12,12a,13-hexahydro-9a-aza-cyclopenta[b]triphenylene methanesulfonate]	0.67 ng/mL	>10000 ng/mL	1.0 ng/mL	74.1 ng/mL	61.1 ng/mL					
